Here are results for eight compounds from ChEMBL document CHEMBL1129998, “Pharmacological options in the treatment of benign prostatic hyperplasia” (J Med Chem, 1997).

The structures appear in SMILES notation.

Assay [1] deals with 3 beta-hydroxysteroid dehydrogenase/Delta 5-->4-isomerase type 1 (Homo sapiens, UniProt P14060). Put plainly: Binding affinity on 3 beta-hydroxysteroid dehydrogenase.
In assay [2] the target is T1, 3-oxo-5-alpha-steroid 4-dehydrogenase 2 (Homo sapiens, UniProt P31213).
T1 sequence (P31213 whole entry): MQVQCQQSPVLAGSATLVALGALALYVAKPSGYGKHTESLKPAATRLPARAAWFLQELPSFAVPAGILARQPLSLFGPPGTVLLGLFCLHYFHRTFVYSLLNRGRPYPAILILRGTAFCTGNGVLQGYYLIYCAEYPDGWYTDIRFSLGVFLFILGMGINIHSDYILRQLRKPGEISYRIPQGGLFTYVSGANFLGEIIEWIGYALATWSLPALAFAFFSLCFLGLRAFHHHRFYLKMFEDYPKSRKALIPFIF
Put plainly: Binding affinity for human 5-alpha reductase 2 isozyme.

Assay [3] concerns the target T2, 3-oxo-5-alpha-steroid 4-dehydrogenase 1 (Homo sapiens, UniProt P18405).
T2 sequence (P18405 whole entry): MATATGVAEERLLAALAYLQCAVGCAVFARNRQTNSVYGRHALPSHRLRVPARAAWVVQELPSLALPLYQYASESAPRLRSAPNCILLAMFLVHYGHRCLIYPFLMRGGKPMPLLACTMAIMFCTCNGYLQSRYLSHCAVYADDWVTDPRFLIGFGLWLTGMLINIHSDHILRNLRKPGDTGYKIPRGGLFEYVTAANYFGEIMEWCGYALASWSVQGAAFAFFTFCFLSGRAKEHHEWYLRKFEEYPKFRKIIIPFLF
The experiment in a line: Binding affinity for human 5 alpha reductase 1 isozyme.

Assay [4] concerns the target T3, Steroid 5-alpha-reductase (Rattus norvegicus, UniProt P24008+P31214).
T3 sequence (P24008 whole entry): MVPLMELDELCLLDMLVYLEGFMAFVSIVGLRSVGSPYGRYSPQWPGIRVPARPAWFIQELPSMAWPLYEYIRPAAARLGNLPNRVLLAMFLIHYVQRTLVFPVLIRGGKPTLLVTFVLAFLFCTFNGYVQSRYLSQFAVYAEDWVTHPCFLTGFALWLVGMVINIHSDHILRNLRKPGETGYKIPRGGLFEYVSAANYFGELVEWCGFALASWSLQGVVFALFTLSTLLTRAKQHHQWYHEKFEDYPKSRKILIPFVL
T3 sequence (P31214 whole entry): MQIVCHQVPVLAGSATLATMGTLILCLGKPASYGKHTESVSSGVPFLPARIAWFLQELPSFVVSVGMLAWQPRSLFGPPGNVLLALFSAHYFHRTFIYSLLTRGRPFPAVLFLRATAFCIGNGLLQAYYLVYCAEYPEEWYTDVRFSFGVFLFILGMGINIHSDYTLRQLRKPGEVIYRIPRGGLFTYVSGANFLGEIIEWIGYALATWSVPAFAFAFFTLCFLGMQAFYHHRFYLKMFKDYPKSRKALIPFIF
The experiment in a line: Binding affinity on rat 5-alpha reductase isozyme. The format is protein assay.

Assay [5] can be described thus: Binding affinity on human prostatic 5-alpha reductase isozyme.
Assay [6] relates to Canis familiaris. The experiment in a line: (§1) In vivo dose (iv) for 50% inhibition of norepinephrine-mediated contraction of proximal urethra (ID50) with the dose (iv) for 25% reduction in systolic blood pressure (ED25) in anesthetized dogs. It is filed as functional, Canis lupus familiaris, Artery.
The target in assay [7] is T4, Alpha-1A adrenergic receptor (Rattus norvegicus, UniProt P43140).
T4 sequence (P43140 whole entry): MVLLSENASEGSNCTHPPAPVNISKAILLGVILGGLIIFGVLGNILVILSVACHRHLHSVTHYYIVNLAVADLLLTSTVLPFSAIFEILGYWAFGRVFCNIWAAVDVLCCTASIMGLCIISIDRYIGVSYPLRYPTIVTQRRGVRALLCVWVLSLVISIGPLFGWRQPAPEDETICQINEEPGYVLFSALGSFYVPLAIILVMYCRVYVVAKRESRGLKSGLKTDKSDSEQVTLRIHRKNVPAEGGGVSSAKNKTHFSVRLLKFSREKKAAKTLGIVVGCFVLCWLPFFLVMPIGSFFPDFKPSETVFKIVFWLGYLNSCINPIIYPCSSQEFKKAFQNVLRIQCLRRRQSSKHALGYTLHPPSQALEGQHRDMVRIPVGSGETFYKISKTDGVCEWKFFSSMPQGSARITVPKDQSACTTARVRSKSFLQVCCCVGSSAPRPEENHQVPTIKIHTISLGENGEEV
Put plainly: Binding affinity was tested on CEC-pretreated rat hippocampus Alpha-1A adrenergic receptor. It is filed as tissue-based.

The target in assay [8] is T5, Alpha-1B adrenergic receptor (Rattus norvegicus, UniProt P15823).
T5 sequence (P15823 whole entry): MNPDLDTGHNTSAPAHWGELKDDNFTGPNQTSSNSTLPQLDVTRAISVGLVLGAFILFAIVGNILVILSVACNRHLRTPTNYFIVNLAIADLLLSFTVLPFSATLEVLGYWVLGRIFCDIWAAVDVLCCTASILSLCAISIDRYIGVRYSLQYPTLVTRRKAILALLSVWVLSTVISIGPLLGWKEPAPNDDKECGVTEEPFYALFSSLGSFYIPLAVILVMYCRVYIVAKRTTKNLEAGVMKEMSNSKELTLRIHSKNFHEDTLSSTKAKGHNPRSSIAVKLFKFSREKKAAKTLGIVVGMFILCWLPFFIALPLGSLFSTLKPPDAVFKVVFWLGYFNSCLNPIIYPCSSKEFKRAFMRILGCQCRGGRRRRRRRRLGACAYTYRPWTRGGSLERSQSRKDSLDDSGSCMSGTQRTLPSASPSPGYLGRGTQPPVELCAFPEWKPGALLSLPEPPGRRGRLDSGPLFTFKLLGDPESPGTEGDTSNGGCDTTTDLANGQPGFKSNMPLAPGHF
Put plainly: Binding affinity was tested on CEC-pretreated rat liver Alpha-1B adrenergic receptor.

Assay [9] is described as follows: as §1. It is filed as functional.
Assay [10] deals with Canis familiaris. The experiment in a line: 50% reduction in intraurethral pressure (IUP) in response to hypogastric nerve stimulation or agonist (phenylephrine or norepinephrine) administration in anesthetized dog. It is filed as functional. Particulars: Canis lupus familiaris; read-out: ID50 (the source's name).
A short description of assay [11]: Ratio of intraurethral pressure to that of pressor response in dog. The format is functional.
The target of assay [12] is T6, Alpha-1D adrenergic receptor (Homo sapiens, UniProt P25100).
T6 sequence (P25100 whole entry): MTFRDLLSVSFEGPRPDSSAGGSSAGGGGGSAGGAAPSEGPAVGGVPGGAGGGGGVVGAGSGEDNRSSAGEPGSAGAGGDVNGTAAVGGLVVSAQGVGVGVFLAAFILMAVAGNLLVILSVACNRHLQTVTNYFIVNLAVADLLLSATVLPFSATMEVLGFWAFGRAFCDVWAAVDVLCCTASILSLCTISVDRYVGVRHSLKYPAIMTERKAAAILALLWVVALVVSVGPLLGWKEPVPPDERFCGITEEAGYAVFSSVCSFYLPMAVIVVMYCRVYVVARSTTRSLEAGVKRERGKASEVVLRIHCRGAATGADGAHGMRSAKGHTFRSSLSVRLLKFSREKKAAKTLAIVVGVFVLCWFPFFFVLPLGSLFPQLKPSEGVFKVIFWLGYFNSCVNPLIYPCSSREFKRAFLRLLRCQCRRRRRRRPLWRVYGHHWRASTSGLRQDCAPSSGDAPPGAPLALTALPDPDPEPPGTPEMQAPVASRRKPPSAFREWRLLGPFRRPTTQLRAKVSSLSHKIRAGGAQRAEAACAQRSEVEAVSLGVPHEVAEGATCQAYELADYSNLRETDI
The experiment in a line: Binding affinity was tested on human Alpha-1D adrenergic receptor.

Assay [13] deals with Canis familiaris. Put plainly: 50% reduction in agonist induced pressor response in anesthetized dog. The note with it: Canis lupus familiaris; read-out: ID50 (the source's name). It is filed as functional.
Assay [14] addresses T7, Alpha-1B adrenergic receptor (Homo sapiens, UniProt P35368).
T7 sequence (P35368 whole entry): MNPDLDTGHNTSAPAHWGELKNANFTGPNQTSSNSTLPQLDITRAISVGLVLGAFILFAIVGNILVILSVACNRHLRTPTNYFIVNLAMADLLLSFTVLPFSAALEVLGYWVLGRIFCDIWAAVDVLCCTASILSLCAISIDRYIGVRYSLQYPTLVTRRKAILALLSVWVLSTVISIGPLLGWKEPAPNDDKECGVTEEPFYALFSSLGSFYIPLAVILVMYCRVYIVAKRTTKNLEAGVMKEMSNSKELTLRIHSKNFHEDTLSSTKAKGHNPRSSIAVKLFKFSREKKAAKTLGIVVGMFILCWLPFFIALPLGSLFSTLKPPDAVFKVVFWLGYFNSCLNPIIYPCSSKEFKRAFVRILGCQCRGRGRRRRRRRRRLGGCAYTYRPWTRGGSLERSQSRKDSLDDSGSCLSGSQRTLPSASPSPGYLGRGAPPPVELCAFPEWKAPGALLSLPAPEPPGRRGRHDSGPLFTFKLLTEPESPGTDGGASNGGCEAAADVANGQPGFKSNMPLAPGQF
Put plainly: Binding affinity was tested on human Alpha-1B adrenergic receptor.

The target of assay [15] is T8, Alpha-1A adrenergic receptor (Homo sapiens, UniProt P35348).
T8 sequence (P35348 whole entry): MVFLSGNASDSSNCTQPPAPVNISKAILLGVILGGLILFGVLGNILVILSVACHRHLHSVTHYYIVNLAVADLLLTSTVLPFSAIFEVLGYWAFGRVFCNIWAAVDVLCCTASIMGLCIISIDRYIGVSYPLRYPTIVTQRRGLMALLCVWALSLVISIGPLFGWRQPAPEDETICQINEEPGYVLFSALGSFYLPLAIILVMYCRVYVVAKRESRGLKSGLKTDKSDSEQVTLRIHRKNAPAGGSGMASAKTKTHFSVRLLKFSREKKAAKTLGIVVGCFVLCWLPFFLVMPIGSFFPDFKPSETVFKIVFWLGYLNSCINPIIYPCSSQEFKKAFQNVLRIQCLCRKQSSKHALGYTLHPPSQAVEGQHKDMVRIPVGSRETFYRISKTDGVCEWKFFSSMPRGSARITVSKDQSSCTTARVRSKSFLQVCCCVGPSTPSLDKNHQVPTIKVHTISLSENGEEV
Put plainly: Binding affinity was tested on human Alpha-1A adrenergic receptor.

Assay [16] concerns the target T2, 3-oxo-5-alpha-steroid 4-dehydrogenase 1. The experiment in a line: Inhibitory concentration on human 5-alpha reductase 1 isozyme.

Sequence of 3 beta-hydroxysteroid dehydrogenase/Delta 5-->4-isomerase type 1 (P14060 whole entry): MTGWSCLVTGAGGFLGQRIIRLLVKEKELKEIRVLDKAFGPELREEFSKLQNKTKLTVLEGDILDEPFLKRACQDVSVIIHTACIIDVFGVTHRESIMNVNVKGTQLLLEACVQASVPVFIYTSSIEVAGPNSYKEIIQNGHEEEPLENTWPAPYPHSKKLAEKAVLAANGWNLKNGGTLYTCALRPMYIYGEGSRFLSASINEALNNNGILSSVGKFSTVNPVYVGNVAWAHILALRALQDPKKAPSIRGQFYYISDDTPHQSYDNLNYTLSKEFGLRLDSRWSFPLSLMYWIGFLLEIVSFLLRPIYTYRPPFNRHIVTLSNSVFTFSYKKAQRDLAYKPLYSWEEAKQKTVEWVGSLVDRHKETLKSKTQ

As a reminder, the IC50 is the concentration that inhibits the measured activity by half. In turn, `CC(C)(C)CCNC(=O)[C@H]1CCC2C3CNC4=CC(=O)CC[C@]4(C)C3CC[C@@]21C` (some centres undefined) yielded an IC50 in assay [1] of 8.3 nM.

By Ki is commonly meant a dissociation constant, usually derived from enzyme kinetics or from competition with a known ligand. Lower therefore signals a stronger hold on the target. In [2], `C[C@]12CCC(=O)C(Cl)=C1NCC1C2CC[C@@]2(C)C1CC[C@@H]2C(=O)Nc1cc(C(F)(F)F)ccc1C(F)(F)F` (some centres undefined) came in with an IC50 of less than 0.1 nM. In assay [3], the Ki came to 0.2 nM.

On to `CC(C)N(C(=O)c1ccc(CCC2CCC(=O)N(C)C2)cc1)C(C)C` (centres undefined), for which the Ki in assay [4] and in assay [5] was greater than 20000 nM each time.

With `COc1ccccc1N1CCN(CCCC(=O)c2cccc3c(=O)c(C)c(-c4ccccc4)oc23)CC1`, in the assay with Canis familiaris [6], the Ratio worked out at 39. Besides, the IC50 amounted to 1.5 nM in assay [7] and 24 nM in [8].

Turning to `COc1ccccc1N1CCN(CCCCOc2cccc3c(=O)c(C)c(-c4ccccc4)oc23)CC1`, the IC50 is 10 nM in assay [7] and 39 nM in assay [8]. Also, the Ratio in assay [9] is on record as 13.

Take `COc1ccc(CCN2CCC(c3nc(COCC(F)(F)F)c(-c4ccc(F)cc4)o3)CC2)cc1S(N)(=O)=O`: the results for the ED50 in the assay with Canis familiaris [10] and in the assay on Canis familiaris [13] were 0.013 mg/kg and 7.25 mg/kg, respectively. Also, the Ratio in assay [11] turned out to be 550. Besides, the Ki in [12] was 25.1 nM; in assay [14], 15.8 nM; in assay [15], 0.2 nM.

In the case of `COc1ccccc1N1CCN(CCCNC(=O)c2ccccc2OCc2ccccc2)CC1`, the Ratio in assay [9] is on record as 16.

For `O=C(O)c1cc2cc(OCc3ccccc3)ccc2[nH]1`, in assay [16], the Ki is greater than 2500 nM.
